Assay results reported in patent US5283255A, “Wavelength-specific cytotoxic agents” (The University of British Columbia, priority 1992, dated 1994).
In brackets after ≈: the same amount, converted by molar mass. Like-named read-outs stand apart in the source and are kept apart here.

Columns and labels:
P815 tumors = assay: In vivo cytotoxicity of immunoconjugates, P815 tumor-bearing DBA/2 mice
[1] = system: murine mastocytoma cell line P815; assay: In vitro photosensitization, kill of P815 cells; type: cell-based; details: Mus musculus; for EC50: P815, 0.5 h, 300-750 nm light for 30 minutes, read-out: concentration at which fifty percent of the P815 cells were killed; for IC50: P815, read-out: LD50 (the source's name)
Procedure: (§1) Target cells were washed three times in serum-free medium (DME), counted and made up to a concentration of 10^7 cells per ml.
(§2) For the "affinity" assay, in the dark, 100 μl of the target cell suspension and 100 μl of the test or control compound were mixed. "Labeling" was allowed to continue for one hour at 4° C., and labeled cells were washed in the dark three times with 3 ml medium each time and resuspended in fresh medium. The resuspended cells were then subjected to light exposure at 300-750 nanometers for 30 minutes.
(§3) In a "direct" assay the target cells were irradiated immediately upon addition of the test or control compound.
When the murine mastocytoma cell line P815 was used, the results were determined as follows:
The cells were labeled as above using concentration of 10-50 ng/ml of Hp as control and the BPD-DB as the test substance. The resuspended cells were treated with 300-750 nm light for 30 minutes and the viability resulting was estimated by direct counting using eosin-Y exclusion, a standard procedure for differentiating living from dead cells.
In other determinations conducted as above, the cells recovered from light exposure were assayed for viability by incubating them for 18 hours in 10 μCi/ml tritium-labeled thymidine according to the standard procedure whereby thymidine incorporation is equated with viability. The cells were harvested and radioactivity uptake was measured by a scintillation counter.
(§4) The results of each determination on a variety of cells is shown in Table 1 (LD50 in the concentration of compound required to kill 50% of the cell population.)

HL-60 = assay: In vitro photosensitization, kill of HL-60 cells; type: cell-based; details: Homo sapiens, read-out: LD50 (the source's name)
Procedure: as §1, §2, §3
(§5) The effect of irradiation was estimated using methods appropriate to the target cells.
as §4

P815 cells = assay: Selective binding of green porphyrin: kill of labeled P815 cells; type: cell-based, murine; details: Mus musculus, P815, 0.5 h; labeled in dark 30 minutes, washed, 300-750 nm light 30 minutes; read-out: concentration at which 50% of the P815 cells were destroyed
Procedure: P815 cells were incubated as described in Example 1 using 1-200 ng/ml Hp or Gp. The Gp was BPD-DB of FIG. 2 wherein R^1 and R^2 are carboethoxy. The cells were labeled in the dark for 30 minutes, washed free of unabsorbed porphyrins, resuspended, and then exposed to 300-750 nm light for another 30 minutes. Viability of the cells was established by tritiated thymidine incorporation after labeling with 20 μCi/ml tritiated thymidine and incubating at 37° C. for 18 hours.

K562 = assay: In vitro photosensitization, kill of K562 cells; type: cell-based; details: Homo sapiens, read-out: LD50 (the source's name)
Procedure: as §1, §2, §3, §5, §4

[2] = system: human erythrocytes (RBCS); assay: In vitro photosensitization: hemolysis of human erythrocytes after irradiation; type: cell-based; details: Erythrocyte, 0.5 h, light 300-750 nm, 30 minutes, read-out: concentration required to obtain 50% hemolysis
Procedure: as §1, §2
When human erythrocytes (RBCS) were used as target cells, the hemolysis caused by irradiation of control (hematoporphyrin, Hp) labeled and green porphyrin (Gp) labeled cells were estimated visually. The Gp used in this Example was the BPD-DB of FIG. 2 wherein R^1 and R^2 are carboethoxy. […] Thus, a concentration of 250 ng/ml Hp was required under the above conditions to obtain 50% hemolysis while only 10 ng/ml of green porphyrin was required to hemolyze 50% of the RBCs.

KG-1 = assay: In vitro photosensitization, kill of KG-1 cells; type: cell-based; details: Homo sapiens, read-out: LD50 (the source's name)
Procedure: as §1, §2, §3, §5, §4

Normal lymphocytes = assay: In vitro photosensitization, kill of normal lymphocytes; type: cell-based; details: Lymphocyte, read-out: LD50 (the source's name)
Procedure: as §1, §2, §3, §5, §4

tumor cells = assay: Alternate in vivo assay: kill of tumor cells from dosed mice (MTT); details: 180 min
Absorption spectrum = type: physicochemical; details: R^1 and R^2 carbomethoxy; FIG. 3
Source text: All of the compositions of the invention employ as the light absorbing compound, a derivative of the protoporphyrin ring system which has a light absorption maximum in the range of 670-780 nanometers. […] Only BPD-DA has a major absorption peak at about 685 nm.

M-1 rhabdomycoscercoma = assay: In vivo photosensitization, M-1 rhabdomyosarcoma system in DBA/J2 mice; details: for Number of Days Tumor Free (PR) / Cures (tumor regressed and tumor-free for 30 days): Table 6; for Number of Days Tumor Free (PR): 567 Jo/cm^2, IV 24 h before light; for Cures (tumor regressed and tumor-free for 30 days): 567 Jo/cm^2, 8 animals per group; for Days Tumor-free / Number of Cures: Table 7, light dose 378 To/cm^3; for Number of Cures: 9-15 animals
Procedure: Studies of potential photosensitizers were performed using the M-1 rhabdomycoscercoma system in DBA/J2 mice. The compositions to be tested were diluted to a concentration of […] in PBS from a stock solution in DMSO at 8 mg/ml (except Photofrin® II, which was diluted directly from the clinical vial). […]

[3] = In vivo cytotoxicity of Gp versus Hp conjugates (CAMAL-1 and anti-M1 procedures); details: at appropriate wavelengths
Procedure: The efficacy of the conjugates and of the Gp compounds of the invention in vivo is also assessed. For the CAMAL-1 and anti-Ml conjugates, the procedures are as described in the two Mew et al. papers referenced above in Example 4.

[4] = Solubility on dilution for addition to blood; details: DMSO stock 8 mg/ml diluted into PBS
skin = assay: Skin sensitivity assay in mice bearing P815 tumors
Procedure: Mice bearing P815 tumors were shaved and injected with equivalent amounts of photosensitizer, and exposed to 72 Jo/cm^2 (80 mw/cm^2 -15 min-full spectrum) at various time intervals. Skin biopsies were taken at 24 and 48 hours after light irradiation and visual evaluations were made blind.

target cells = assay: In vitro evaluation of BPD-DA, -MA, -DB and -MB (as in Example 1); type: cell-based
Procedure: as §2, §3, §5
The four compounds shown in FIG. 2, wherein R^1 and R^2 are carbomethoxy, were tested in vitro as described in Example 1.

VSV = assay: microbe, parasite or virus in culture; design: species or system Vesicular stomatitis virus; details: Vesicular stomatitis virus, light or radiation study, 2 h, read-out: viral kill, 2 μg/ml; 1 ml; 2 h; 57.6 J/cm^2

Structure (SMILES): CC1=C(CCC(=O)O)c2cc3[nH]c(cc4nc(cc5[nH]c(cc1n2)c(C)c5C(C)O)C(C)=C4C(C)O)c(C)c3CCC(=O)O (centres unmarked) [Hp, hematoporphyrin, reference compound]
- % tumor-free after 100 (days) (P815 tumors; Experiment 2): 0%
- Mean survival time (P815 tumors; Experiment 2): 21.0 days
- No. of cures (P815 tumors; Experiment 2): 0/8
- % tumor-free after 100 (days) (P815 tumors; Experiment 3): 0%
- Mean survival time (P815 tumors; Experiment 3): 23.4 days
- No. of cures (P815 tumors; Experiment 3): 0/7
- % tumor-free after 100 (days) (P815 tumors; Experiment 4): 0%
- Mean survival time (P815 tumors; Experiment 4): 24.2 days
- No. of cures (P815 tumors; Experiment 4): 0/8
- % tumor-free after 100 (days) (P815 tumors; Experiment 5): 0%
- Mean survival time (P815 tumors; Experiment 5): 27.0 days
- No. of cures (P815 tumors; Experiment 5): 0/8
- EC50 [1]: 0.58 µg/mL
- IC50 ([1]; P815, Affinity test): 1.3 µg/mL
- IC50 ([1]; P815, Direct test): 0.58 µg/mL
- IC50 (HL-60; HL-60, Affinity test): 0.145 µg/mL
- IC50 (HL-60; HL-60, Direct test): 0.064 µg/mL
- EC50 (P815 cells): 0.2 µg/mL (≈ 0.334 µM)
- IC50 (K562; K562, Affinity test): 2.5 µg/mL
- IC50 (K562; K562, Direct test): 0.77 µg/mL
- EC50 [2]: 0.25 µg/mL
- IC50 (KG-1; KG-1, Affinity test): 2.35 µg/mL
- IC50 (KG-1; KG-1, Direct test): 0.96 µg/mL
- IC50 (Normal lymphocytes; Affinity test): 0.1 µg/mL
- IC50 (Normal lymphocytes; Direct test): 0.031 µg/mL

Structure (SMILES): C=Cc1c(C)c2cc3nc(cc4[nH]c(cc5nc(cc1[nH]2)C(C)=C5CCC(=O)O)c(CCC(=O)O)c4C)C1(C)C3=CC=C(C(=O)OC)C1C(=O)OC (centres unmarked) [BPD-DA]
- % Kill (tumor cells; 80 μg/mouse IV, light dose 3.8 Jo): 11.0%
- % Kill (tumor cells; 80 μg/mouse IV, light dose 7.6 Jo): 26.0%
- major absorption peak (Absorption spectrum): about 685 nm
- Number of Days Tumor Free (PR) (M-1 rhabdomycoscercoma): 10.7 days
- Cures (tumor regressed and tumor-free for 30 days) (M-1 rhabdomycoscercoma): 4
- Days Tumor-free (M-1 rhabdomycoscercoma): 2.5 days
- Number of Cures (M-1 rhabdomycoscercoma): 4

Structure (SMILES): C=Cc1c(C)c2cc3nc(cc4[nH]c(cc5nc(cc1[nH]2)C1(C)C5=CC=C(C(=O)OCC)C1C(=O)OCC)c(C)c4CCC(=O)O)C(CCC(=O)O)=C3C (centres unmarked) [Gp]
- EC50 [1]: 0.032 µg/mL
- IC50 ([1]; P815, Affinity test): 0.026 µg/mL
- IC50 ([1]; P815, Direct test): 0.032 µg/mL
- IC50 (HL-60; HL-60, Affinity test): 0.0072 µg/mL
- IC50 (HL-60; HL-60, Direct test): 0.0035 µg/mL
- EC50 (P815 cells): 0.006 to 0.02 µg/mL (≈ 0.00819 to 0.0273 µM)
- IC50 (K562; K562, Affinity test): 0.033 µg/mL
- IC50 (K562; K562, Direct test): 0.07 µg/mL
- in vivo efficacy of Gp compound alone compared to Hp labeled conjugates [3]: superior results
- EC50 [2]: 0.01 µg/mL
- IC50 (KG-1; KG-1, Affinity test): 0.08 µg/mL
- IC50 (KG-1; KG-1, Direct test): 0.163 µg/mL
- IC50 (Normal lymphocytes; Affinity test): 0.011 µg/mL
- IC50 (Normal lymphocytes; Direct test): 0.0042 µg/mL

Structure (SMILES): C=Cc1c(C)c2cc3nc(cc4[nH]c(cc5nc(cc1[nH]2)C1(C)C5=CC=C(C(=O)OC)C1C(=O)OC)c(C)c4CCC(=O)O)C(CCC(=O)OC)=C3C (centres unmarked) [BPD-MB]
- treatment required to achieve solubility [4]: required a 20-minute sonication in ultrasonic bath to achieve solubility
- skin photosensitizing activity (skin; 72 Jo/cm^2, biopsies 24 and 48 h after light): to a lesser extent
- time dependence of skin photosensitizing activity (skin; light at various intervals after drug): only present when light treatment was given 3 hours post drug administration
- % Kill (tumor cells; 33 μg/mouse IV, light dose 5.7 Jo): 25.2%
- in vitro photosensitivity (target cells): somewhat more active
- log reduction at 2 µg/mL (VSV): 4
- Number of Days Tumor Free (PR) (M-1 rhabdomycoscercoma): 10.6 days
- Cures (tumor regressed and tumor-free for 30 days) (M-1 rhabdomycoscercoma): 3
- Days Tumor-free (M-1 rhabdomycoscercoma): 8.7 days
- Number of Cures (M-1 rhabdomycoscercoma): 6
